The text below walks through data of the METLIN SMRT retention time set (Domingo-Almenara et al. 2019).

Structures are written as SMILES.

A short description of the series: gradient 5% acetonitrile 3 min, to 50% in 2 min, to 85% in 15 min, held 3 min, 100 µL/min. The settings on record: column: Zorbax Extend-C18 2.1 x 50 mm; eluents: water / acetonitrile, 0.1% formic acid. In outline:
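Values are retention times taken from adduct peaks that software picked and an analyst inspected. The pure standards were run as mixtures of ~100 molecules on HPLC linked to a quadrupole time-of-flight mass spectrometer, in positive and negative ionization mode. A Zorbax Extend-C18 column (2.1 × 50 mm, 1.8 μm) was used at 100 μL/min with water and acetonitrile, each including 0.1% formic acid.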
Compound `Cc1ccc(CNC(=O)NC2CCN(C(=O)N3C[C@H]4C[C@H](C3)[C@H]3CCCC(=O)N3C4)CC2)cc1` gave an RP-LC retention time of 681 s.

`COc1ccc(CC(=O)NCCc2cn(C)c3ncccc23)cc1Cl` gave an RP-LC retention time of 679 s.

For the compound `O=C1CC(C(=O)N2CCN(Cc3ccccc3)CC2)CN1CCc1ccccc1` (stereo not given), the RP-LC retention time was determined as 740 s.

Take `CC(C)NC(=O)Cn1c(-c2ccccc2F)nc2ccccc21`: the RP-LC retention time was found to be 589 s.

Compound `CCn1cc(S(=O)(=O)Nc2cccc(C)c2C)c2cccnc21` returned an RP-LC retention time of 868 s.

As for `COC(=O)Cn1nc2ccc(S(=O)(=O)N3CCC(C)CC3)cn2c1=O`, the RP-LC retention time came to 819 s.

The compound `CCC(=O)NCC12CCC=C1N(C)C(=O)CC2` (stereo not given) had an RP-LC retention time of 616 s.

`CCc1nn(C)c(=O)c2cc(S(=O)(=O)NCc3ccc(F)cc3Cl)cn12` returned an RP-LC retention time of 916 s.

For `O=C(c1ccc2ccccc2n1)N1CC(n2ccnc2)C1`, the RP-LC retention time came out at 604 s.

On to `O=S(=O)(c1cccnc1)N1CC(c2nc(CCOCc3ccccc3)no2)C1`, for which the RP-LC retention time amounted to 835 s.

Turning to `Cc1csc2nc(CSc3nnc(-c4ccccc4F)o3)cc(=O)n12`, the RP-LC retention time is 799 s.

Consider `CCCNC(=O)CCc1nc2ccccc2n(CC(=O)Nc2cc(Cl)c(OC)cc2OC)c1=O`, for which the RP-LC retention time came out at 790 s.

Compound `NC(=O)c1cc(N2CCOCC2)nc2ccc(F)cc12` registered an RP-LC retention time of 688 s.

`Cn1nc(N2CCCC(NS(=O)(=O)Cc3ccccc3)C2)ccc1=O` (stereo not given) returned an RP-LC retention time of 702 s.

`CCNc1cc(N2CCCC(CCC(=O)N3CCc4ccccc4C3)C2)ncn1` (stereo not given) yielded an RP-LC retention time of 694 s.

Take `Clc1ccc(C(Cn2ccnc2)OCc2csc3c(Cl)cccc23)c(Cl)c1` (stereo not given): the RP-LC retention time is 974 s.

The compound `CCC1(CC=C2CCCCC2)C(=O)NC(=O)NC1=O` showed an RP-LC retention time of 863 s.

Take `CCc1nc(-c2csc(S(=O)(=O)N3CCC(C(=O)NC(C)C)CC3)c2)no1`: the RP-LC retention time amounted to 812 s.

Compound `O=C(NC1CCCC1)C1CCCN(C(=O)c2ccc(F)c(F)c2)C1` (stereo not given) showed an RP-LC retention time of 763 s.

`O=C(NCC1(N2CCOCC2)CCOC1)Nc1ccccc1` (stereo not given) gave an RP-LC retention time of 572 s.

For `Cc1ccc(-n2cc3c(N4CCCC(C(=O)NCc5ccccc5C(F)(F)F)C4)ncnc3n2)cc1` (stereo not given), the RP-LC retention time was 775 s.

On to `CCc1ccc(NC(=O)C2CCCN(S(=O)(=O)c3cc(-c4noc(CC)n4)cs3)C2)cc1` (stereo not given), for which the RP-LC retention time turned out to be 1110 s.

For the compound `Cc1cc2c(cc1S(=O)(=O)N1CCCC1C(=O)Nc1ccc(F)cc1F)OCC(=O)N2` (stereo not given), the RP-LC retention time came to 774 s.

Turning to `CCOC(=O)N1CCN(C(=O)C2CCC(=O)N(c3ccc(OC)cc3)C2c2ccc(F)cc2)CC1` (stereo not given), the RP-LC retention time stood at 726 s.

In the case of `O=C([C@@H]1C[C@H](F)CN1S(=O)(=O)c1ccc(F)cc1F)N1CCc2ccccc2C1`, the RP-LC retention time was 906 s.

`COCC(=O)N(C1CCOCC1)C1CCN(S(=O)(=O)c2cccc(C)c2)CC1` registered an RP-LC retention time of 762 s.

With `O=C(CCc1ccccc1)Nc1nc(-c2cccc3ccccc23)cs1`, the RP-LC retention time came out at 1170 s.

The compound `Cc1cc(-c2nc(-c3ccc(F)cc3)no2)c(C)n1CC(=O)NC1CCCC1` came in with an RP-LC retention time of 1080 s.

In turn, `Cc1nn(CC(=O)NCCN2CCOCC2)c(=O)c2nc(-c3ccccc3)sc12` yielded an RP-LC retention time of 610 s.

`COC(=O)c1c(C)[nH]c(C(=O)N2CCCC(C(=O)N3CCN(c4cccc(Cl)c4)CC3)C2)c1C` (stereo not given) had an RP-LC retention time of 952 s.

`CCn1c(=O)c(N2CCN(C(=O)Nc3cc(F)ccc3F)CC2)nc2ccccc21` came in with an RP-LC retention time of 997 s.

For the compound `O=C(C1=COCCO1)N1CCN(c2ccccc2)CC1`, the RP-LC retention time was 694 s.

In the case of `O=C(Nc1cnc(N2CCCCCC2)nc1)C1CC1`, the RP-LC retention time came to 714 s.

In turn, `Cc1ccc(-c2ccc(-n3nc(C)c(S(=O)(=O)N4CCN(C)CC4)c3C)nn2)cc1` registered an RP-LC retention time of 695 s.

Consider `Cc1ccc(NC(=O)Cn2ccc3sccc3c2=O)c(Cl)c1`, for which the RP-LC retention time was 802 s.

Compound `COc1ccc(-c2[nH]ncc2CN2CCC3(CC2)CC(C)(O)CCO3)cc1` (stereo not given) showed an RP-LC retention time of 588 s.

`CCn1c(C(=O)Nc2cc(Cl)ccc2C)cc2sc(Cl)cc21` gave an RP-LC retention time of 1310 s.

With `Cc1ccc(N(C)C(=O)c2nc(N3CCSCC3)c3cnn(C)c3n2)cc1`, the RP-LC retention time came out at 812 s.

`Cc1nn2c(CNS(=O)(=O)Cc3ccc(C)c(C)c3)c(-c3ccccc3)nc2s1` came in with an RP-LC retention time of 974 s.

In turn, `NC(=O)COc1cc(-c2cccc(Cl)c2)nc2ccc(NC(=O)C3CC3)cc12` gave an RP-LC retention time of 667 s.

`COCc1nc(CCNS(=O)(=O)c2ccc(F)cc2)no1` displayed an RP-LC retention time of 731 s.

`O=C(Cn1nc(N2CCSCC2)c2ccccc2c1=O)Nc1ccc(Cl)cc1` returned an RP-LC retention time of 979 s.

Take `CN(CC1CCOCC1)C(=O)Nc1ccc(Cl)cc1`: the RP-LC retention time stood at 772 s.

Compound `CCc1nc2cc(N3CCC(C(=O)NCc4ccccc4F)CC3)cnc2nc1CC` showed an RP-LC retention time of 840 s.

`Cc1nc(C)c(C(=O)Nc2ccc(F)cc2Cl)s1` had an RP-LC retention time of 820 s.

Consider `Cc1cccc(NC(=O)c2cccn2Cc2noc(C3CC3)n2)c1C`, for which the RP-LC retention time worked out at 954 s.

`CC(C)CNC(=O)CCc1nc2ccccc2n(CC(=O)NCc2ccccc2Br)c1=O` yielded an RP-LC retention time of 847 s.

On to `COc1ccc(-n2c(=O)c3sccc3n(Cc3nc(-c4cccc(OC)c4)no3)c2=O)cc1`, for which the RP-LC retention time came to 949 s.

The compound `Cc1ccc(NC(=O)Cn2ncc3c(c2=O)N(CC2CC2)C(=O)CS3)cc1Cl` showed an RP-LC retention time of 884 s.

`COCC1(O)CCOC2(CCN(Cc3ccc(F)cc3)CC2)C1` (stereo not given): the RP-LC retention time is 654 s.

Regarding `Cc1ccccc1-c1nnc(COc2ccc(NC(=O)c3cncc(Br)c3)cc2)o1`, the RP-LC retention time came to 968 s.

Compound `CCNC(=O)C1CCN(C2=NS(=O)(=O)C(c3ccc(C(C)C)cc3)=C2C)CC1` returned an RP-LC retention time of 812 s.

`O=C(NC1CCCCCC1)C1CCN(S(=O)(=O)c2cc(C(=O)N3CCCC3)cs2)CC1` had an RP-LC retention time of 820 s.

Take `Cn1ncc2c(N3CCSCC3)nc(C(=O)NCc3cccs3)nc21`: the RP-LC retention time is 778 s.

As to `O=C(NCc1ccc(F)cc1)c1ccnc(N2CCNC(c3ccccc3)C2)c1` (stereo not given), the RP-LC retention time amounted to 635 s.

`CC(=O)Nc1nsc(N2CCC(C(=O)NCc3cc(F)cc(F)c3)CC2)n1` yielded an RP-LC retention time of 661 s.

Compound `Cc1cccc(N2CCN(C(=O)C3CCCN(c4cc(=O)n(C)c(=O)n4C)C3)CC2)c1C` (stereo not given) registered an RP-LC retention time of 874 s.

On to `O=S(=O)(c1cccc(-c2nnc(-c3ccc(F)cc3)o2)c1)N1CCOCC1`, for which the RP-LC retention time stood at 892 s.

In turn, `COC(=O)c1sc(-c2ccccc2)cc1NC(=O)c1ccc([N+](=O)[O-])s1` returned an RP-LC retention time of 1370 s.

In turn, `COc1ccc2c(c1)CCC1C2CC[C@@]2(C)C1CC[C@@H]2NCCCCCCN1C(=O)CCC1=O` (stereo not given in full) showed an RP-LC retention time of 864 s.

The compound `Cc1c(-c2ccnc(N3CCCCC3)n2)cnc2nc(-c3ccc(Cl)cc3)nn12` showed an RP-LC retention time of 1400 s.

As to `COc1ccc(CCNC(=O)C2CCCN(S(=O)(=O)c3ccc4c(ccn4C)c3)C2)cc1OC` (stereo not given), the RP-LC retention time turned out to be 828 s.

In turn, `Cc1nnc(-c2cc(C)n(CC(=O)Nc3ccc(Cl)cc3)c2C)o1` gave an RP-LC retention time of 820 s.

As to `O=C(Cn1cccn1)N1CCCC(c2nnc(-c3ccccc3F)s2)C1` (stereo not given), the RP-LC retention time is 690 s.

For `CC(C)CCNC(=O)c1ccc2c(c1)CCCN2S(C)(=O)=O`, the RP-LC retention time amounted to 846 s.

On to `Cc1ccc(CN2CCC(CNC(=O)Cn3ccc4c(=O)n(C)c(=O)n(C)c43)CC2)cc1`, for which the RP-LC retention time was determined as 601 s.

Take `Cn1c(=O)n([C@H]2CCN(C(=O)C3CC3)C2)c2ncccc21`: the RP-LC retention time was determined as 639 s.

`Cn1c(=O)c(=O)n(CC(=O)NCCc2ccco2)c2cccnc21` had an RP-LC retention time of 646 s.

Compound `CCCOc1ccccc1Nc1nc(C(=O)OCC)nc2ccccc12` registered an RP-LC retention time of 1040 s.

With `COc1ccc(N2CCN(C(=O)c3c(C)oc4nc(C)nc(N5CCCC5)c34)CC2)cc1`, the RP-LC retention time is 694 s.

On to `CCc1csc(-c2ccc(N3CCN(C(=O)c4nccc5ccccc45)CC3)nc2)n1`, for which the RP-LC retention time was 938 s.

`O=C(Nc1ccc2c(c1)OCO2)C1CCc2sc(C(=O)N3CCCC3)cc2C1` (stereo not given) registered an RP-LC retention time of 730 s.

With `CCCS(=O)(=O)N1CCc2ccc(NC(=O)Nc3cc(Cl)ccc3OC)cc2C1`, the RP-LC retention time is 995 s.

Compound `CCc1nc2c(c(=O)n1CC(=O)NCc1ccc(C)cc1)CN(Cc1ccccc1)CC2` yielded an RP-LC retention time of 661 s.

`O=C(NCc1cccc(F)c1)N1CCCC(Cn2cnc3cccnc32)C1` (stereo not given) came in with an RP-LC retention time of 652 s.

`COc1cccc(NC(=O)Cn2cnc(-c3noc(C4CC4)n3)c2)c1` registered an RP-LC retention time of 725 s.

As to `Cc1cc(N2CCN(C(=O)Nc3ccc(F)c(Cl)c3)CC2)nc(N2CCCC2)n1`, the RP-LC retention time stood at 701 s.

For `CCN1CCN(c2cc(-c3ccc(F)cc3)c3c(n2)CCCCCC3)CC1`, the RP-LC retention time was 765 s.

With `Cc1cc(Cl)ccc1NC(=O)C1CCCN1S(=O)(=O)c1cc2c(cc1C)NC(=O)C(C)O2` (stereo not given), the RP-LC retention time came to 914 s.

`O=C(c1nnc(-c2ccc(S(=O)(=O)N3CCCC3)cc2)o1)N1CCc2ccccc2C1` displayed an RP-LC retention time of 980 s.
